Read-outs that look alike come from different tables or passages of the source.
Experiments:
[1] = target: T1, GR (Rattus norvegicus, UniProt P06536); assay: GR transactivation, MMTV-luciferase reporter in T47D cells; assay type: cell-based, human
T1 construct: expressed in transfected cells; host or cells: T47D/A1-2
T1 sequence (P06536 1-795): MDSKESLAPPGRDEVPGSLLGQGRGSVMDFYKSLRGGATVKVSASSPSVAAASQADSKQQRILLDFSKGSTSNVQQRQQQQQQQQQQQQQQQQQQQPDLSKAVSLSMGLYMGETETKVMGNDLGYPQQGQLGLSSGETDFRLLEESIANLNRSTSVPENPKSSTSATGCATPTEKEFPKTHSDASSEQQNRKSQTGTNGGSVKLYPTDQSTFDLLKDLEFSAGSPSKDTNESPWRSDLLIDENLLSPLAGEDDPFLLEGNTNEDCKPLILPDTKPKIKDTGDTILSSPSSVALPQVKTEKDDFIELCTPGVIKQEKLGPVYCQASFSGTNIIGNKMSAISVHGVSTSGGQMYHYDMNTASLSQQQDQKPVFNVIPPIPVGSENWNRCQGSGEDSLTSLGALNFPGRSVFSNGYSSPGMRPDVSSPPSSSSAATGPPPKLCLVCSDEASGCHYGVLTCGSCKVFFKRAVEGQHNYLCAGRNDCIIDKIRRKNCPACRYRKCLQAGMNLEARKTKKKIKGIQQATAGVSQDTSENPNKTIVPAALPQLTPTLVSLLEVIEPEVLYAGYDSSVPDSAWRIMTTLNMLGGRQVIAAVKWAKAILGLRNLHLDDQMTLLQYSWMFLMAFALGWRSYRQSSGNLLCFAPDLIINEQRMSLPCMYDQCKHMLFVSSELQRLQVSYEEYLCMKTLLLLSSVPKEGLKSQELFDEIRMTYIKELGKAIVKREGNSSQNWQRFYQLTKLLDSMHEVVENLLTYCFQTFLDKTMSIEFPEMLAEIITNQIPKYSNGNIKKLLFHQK
Experimental: The T47D-KBluc cells stably express an (ERE)3-luciferase reporter gene (38). Cells were maintained in phenol red-free RPMI 1640 with 2 mM L-glutamine, 1.5 g/l sodium bicarbonate, 4.5 g/l glucose, 10 mM Hepes, pH 7.5, 1 mM sodium pyruvate, 10% FBS (Atlanta Biological, Atlanta, Ga.) and antibiotics. Four days before E2 induction, the cells were switched to the above medium, with 10% 2× charcoal-dextran-treated calf serum instead of FBS. 200,000 cells/well were transferred to each well of a 24-well plate. After 24 h the indicated concentrations of the test compounds were added in DMSO and E2 was added to 20 pM. After 24 h cells were washed once in PBS, and 150 μl 1× Passive Lysis Buffer (Promega, Madison Wis.) was used to lyse the cells. Luciferase activity was determined using firefly luciferase reagents from Promega (Madison, Wis.). T47D cells stably transfected to express GR and a mouse mammary tumor virus luciferase reporter that responds to liganded GR and PR were maintained and assayed in medium containing 5 nM progesterone for PR assays, or 2.5 nM dexamethsaone for GR assays, essentially as described (39).
Reporter Gene Assays. TPSF was identified by reporter gene assays comparing the ability of ˜200 compounds structurally related to TPBM (see reference 19) to inhibit transcription of a stably transfected (ERE)3-luciferase reporter gene in T47D-KBluc breast cancer cells (20). AR was assayed in stably transfected HeLa cells and GR was assayed in stably transfected T47D cells maintained as described above. Four days before each experiment the cells were switched to medium containing CD-treated serum as described above. The HeLaAR cells were plated at 100,000 cells/well and the T47D/A1-2 and T47D-KBluc cells were plated at 200,000 cells/well in 1 ml of their respective media in 24-well plates. After 24 hours the indicated concentrations of E2, dihydrotestosterone (DHT) or dexamethasone (Dex) and DMSO vehicle, with or without TPSF, were added to each well. After 24 hours, the cells were washed once in phosphate buffered saline and lysed using 100 μl of 1× Passive Lysis Buffer (Promega, Madison Wis.). Luciferase activity was determined using BrightGlo firefly luciferase reagent from Promega (Madison, Wis.).

[2] = tested on: BG-1 ovarian cancer cells; assay: BG-1 cell growth assay (MTS); assay type: cell-based; details: for IC50: 10 pM E2, 5 days, MTS, read-out: IC50 for inhibition of E2-dependent growth of BG-1 cells
Experimental: ERα positive BG-1 ovarian cancer cells (44) were provided by Prof. K. Korach. ERα negative MDA-MB-231 human breast cancer cell lines were provided by Prof. A. Nardulli. The cells are maintained in phenol red-free MEM medium with 5% calf serum and antibiotics. 4 days before hormone induction, cells are switched to phenol red-free MEM medium containing 5% 2XCD-treated calf serum for BG-1 cells. For BG-1 cell growth assays, 250 cells in 100 μl of phenol-red-free medium were added to wells of a 96-well plate. After 24 h, the indicated concentrations of the test compounds and 10 pM E2 or ethanol vehicle were added to each well. Compounds in DMSO were diluted in medium so that the DMSO concentration was not greater than 0.5%. Cell viability assays were carried out 5-6 days later using Promega CellTiter 96®Aqueous One Solution Cell Proliferation Assay (Promega, Wis.).

With Cn1c(=S)c2[nH]c(SCCCC(=O)c3ccc(F)cc3)nc2n(C)c1=O [TPSF, Butyrophenone, p-fluoro-4-(1,2,3,6,-tetrahydro-1,3-dimethyl-2-oxo-6-thionopurin-8-ylthio)] as the compound, how does the IC50 ([1]; stably transfected T47D cells, 100 nM Dex, 24 h, read-out: IC50 for inhibition of GR gene expression (MMTV-Luc)) read?
The IC50 was 10 µM.

For Cn1c(=O)c2nc(CSCc3ccccc3)[nH]c2n(C)c1=O [Compound 95910, 8-Benzylsulfanylmethyl-1,3-dimethyl-3,7-dihydro-purine-2,6-dione], which inhibition at 30 µM ([1]; T47D, 30 μM, 2.5 nM dexamethasone) is on record?
Its inhibition at 30 µM is ~35%.

And the “effect on GR transactivation” value ([1]; up to 20 μM, 2.5 nM dexamethasone)?
The value was “did not inhibit”.

And the “potency for inhibiting E2-ERα-dependent cell growth relative to nonspecific toxicity” value [2]?
Its value is > 10 fold.

And the IC50 ([2]; Homo sapiens, BG-1, 120 h)?
Its IC50 is 5 µM.

And the “effect on E2-independent growth of BG-1 cells” value ([2]; no E2, 5 days)?
Its value is “had no effect”.

Which results are given for CN1CCC(C#N)c2ccccc21 (centres unmarked) [Compound 1529]?
IC50 [2]: ~5 µM; concentration inhibiting growth of BG-1 cells in the absence of E2 ([2]; no E2, 5 days): > 5 µM
